“Also recorded” adds a separate entry of the source.
Legend:
[1] = system: SREBP, HMG-CoA reductase, IPP isomerase (IPPI) and FPP synthase mRNA; assay: Northern blot analysis of cholesterol/triglyceride biosynthesis and uptake gene mRNA in cultured human cells; type: cell-based; details: for expression of cholesterol biosynthetic enzymes (Northern analysis): HUVEC and HepG2 cells; for steady-state mRNA levels of IPPI / steady-state mRNA levels of IPPI (IPP isomerase): 4 hours; for steady-state mRNA levels of IPPI: 5 mM amino acid or 2 mM DTT; for steady-state mRNA levels of IPPI (IPP isomerase): homocysteine 5 mM, DTT, β-mercaptoethanol 5 mM, tunicamycin 10 μg/ml, A23187 10 μM; for IPPI mRNA levels: 0-18 hours
Description: (§1) Cell culture and treatment conditions. Primary human umbilical vein endothelial cells (HUVEC) were isolated by collagenase treatment of human umbilical veins (Jaffe, E. A, 1973) and cultured in EC medium (M199 medium, 20 μg/ml endothelial cell growth factor, 90 μg/ml porcine intestinal heparin, 100 μg/ml penicillin and 100 μg/ml streptomycin) containing 20% fetal bovine serum (Hyclone; Logan, Utah) in a humidified incubator at 37° C. with 5% CO2. Cells from passages 2-4 were used in these studies. Human aortic smooth muscle cells (HASMC) were purchased from Cascade Biologicals (Portland, Oreg.) and cultured in M231 media (Cascade Biologicals) containing smooth muscle cell growth supplement (Cascade Biologicals). The human hepatocarcinoma cell line, HepG2, was obtained from the American Type Culture Collection (ATCC; Rockville, Md.) and cultured in A-DMEM containing 10% fetal bovine serum. DL-homocysteine, L-methionine, DL-cysteine, glycine, DL-dithiothreitol ([…]), tunicamycin, A23187 and β-mercaptoethanol were purchased from Sigma (St. Louis, Mo.). These compounds were prepared fresh in culture medium, sterilized by filtration and added to the cell cultures.
(§2) Preparation of Total RNA. […] .

[2] = system: GRP78/BiP and GADD153 mRNA; assay: Northern blot analysis of ER stress response genes in HepG2 cells; type: cell-based, human; details: 4 h, 5 mM amino acids, 2.5 mM DTT, 10 μg/ml tunicamycin
Description: as §1, §2

HepG2 cells [3] = assay: Intracellular total cholesterol in HepG2 cells; type: cell-based, human; details: HepG2, 0-5 mM, 24-48 h
Description: (§3) Lipids are extracted with hexane:isopropanol (3:2), dried and resuspended in hexane. Colorimetric cholesterol assays is carried out using the Sigma Diagnostics Cholesterol Reagent (Sigma) to determine total cholesterol levels. Total plasma cholesterol are measured using the same assay but without the lipid extraction step.
as §1
(§4) Total cholesterol and triglyceride levels.

HASMC [4] = assay: Intracellular total cholesterol in HASMC; type: cell-based, human; details: 0-5 mM, 24-48 h
Description: as §3, §1, §4

cultured cells = details: cited from earlier work; for overall cell number or viability: extracellular concentrations up to 5 mM
GRP78/BiP and GRP94 = assay: Immunoblot with anti-KDEL mAb in HepG2 cells; type: cell-based, human; details: HepG2, 5 mM homocysteine, 8, 18 and 36 h
Description: as §1
(§5) Immunoblot analysis. The anti-KDEL mAb (SPA-827), which recognizes both GRP78/BiP and GRP94, was purchased from StressGen Biotechnologies (Victoria, BC). […]

SREBP-1 = assay: Immunoblot of SREBP-1 precursor and mature forms in HepG2 cells; type: cell-based, human; details: 5 mM homocysteine
Description: as §1, §5

SREBP-2 = assay: Immunoblot of SREBP-2 forms in HepG2 cells; type: cell-based, human; details: HepG2 cells (data not shown)
Description: as §1, §5

HUVEC [5] = assay: Intracellular total cholesterol in HUVEC; type: cell-based, human; details: 0-5 mM, 24-48 h
Description: as §3
as §1, with “These compounds were prepared fresh in culture medium, sterilized by filtration and added to the cell cultures.” left out

HUVEC [6] = assay: BODIPY FL LDL / AcLDL binding and uptake in HUVEC; type: cell-based, human
Description: as §1
(§6) Uptake of BODIPY FL LDL and image analysis. […] Images were subsequently captured and analyzed using Northern Exposure image analysis/archival software (Mississauga, ON).

HASMC [7] = assay: BODIPY FL LDL binding and uptake in HASMC; type: cell-based, human
Description: as §1, §6

HepG2 cells [8] = assay: BODIPY FL LDL binding and uptake in HepG2 cells; type: cell-based, human; details: 5 mM homocysteine 8 hr
Description: as §1, §6

[9] = HepG2 cells, 5 mM homocysteine, 0-18 h

O[C@H](CS)[C@H](O)CS (racemic) [DTT, DL-dithiothreitol]
expression of cholesterol biosynthetic enzymes (Northern analysis) [1]: induce the cholesterol biosynthetic pathway in a manner similar to that of homocysteine | steady-state mRNA levels of IPPI ([1]; HUVEC): significantly increased IPPI mRNA levels | steady-state mRNA levels of IPPI (IPP isomerase) ([1]; HepG2 cells): induced the expression of IPP isomerase; also recorded: increase IPPI mRNA levels | steady-state mRNA levels of GRP78/BiP and GADD153 [2]: also induced the steady-state mRNA levels of GRP78/BiP and GADD153

NC(CS)C(=O)O (racemic) [cysteine, DL-cysteine]
expression of cholesterol biosynthetic enzymes (Northern analysis) [1]: no other amino acids, including thiol-containing methionine and cysteine, have significant effects | steady-state mRNA levels of IPPI ([1]; HUVEC): only homocysteine and DTT significantly increased IPPI mRNA levels | steady-state mRNA levels of GRP78/BiP and GADD153 [2]: failed to induce the expression of these ER stress response genes | total cellular cholesterol normalized to protein (HepG2 cells [3]): but not cysteine, increased cellular cholesterol | total cellular cholesterol normalized to protein (HASMC [4]): but not cysteine, increased cellular cholesterol | overall cell number or viability (cultured cells): does not effect cell viability

NC(CCS)C(=O)O (racemic) [homocysteine, DL-homocysteine]
IPPI mRNA levels ([1]; HASMC, 5 mM homocysteine): significantly increases IPPI mRNA levels | IPPI mRNA levels ([1]; HUVEC, 5 mM homocysteine): significantly increases IPPI mRNA levels | expression of cholesterol biosynthetic pathway genes, clusterin and SREBP ([1]; HUVEC, 1-5 mM homocysteine for as little as 2 hours): enhanced | steady-state mRNA levels of IPPI ([1]; HUVEC): significantly increased IPPI mRNA levels | IPPI mRNA levels ([1]; HepG2, 5 mM homocysteine): significantly increases IPPI mRNA levels | steady-state mRNA levels of SREBP, HMG-CoA reductase and FPP synthase ([1]; HepG2 cells, 5 mM homocysteine, 0, 2, 4, 8 or 18 hours): increased steady-state mRNA levels for all transcripts | steady-state mRNA levels of HMG-CoA reductase, IPP isomerase and FPP synthase [1, 9]: increased and peaked between 2 and 4 hr | steady-state mRNA levels of SREBP-1 [1, 9]: increased and peaked between 2 and 4 h | steady-state mRNA levels of IPPI (IPP isomerase) ([1]; HepG2 cells): induced the expression of IPP isomerase; also recorded: increase IPPI mRNA levels | mRNA levels of acetyl CoA carboxylase, fatty acid synthase and LDL receptor ([1]; homocysteine treated HepG2 cells (data not shown)): also increased | steady-state mRNA levels of GRP78/BiP and GADD153 [2]: increased steady-state mRNA levels of GRP78/BiP and GADD153 | GRP78/BiP and GRP94 protein levels (GRP78/BiP and GRP94): elevated | levels of active (68 kDa) and precursor (125 kDa) forms of SREBP-1 (SREBP-1): increased levels of both active (68 kDa) and precursor (125 kDa) forms of SREBP-1 | active and precursor forms of SREBP-2 (SREBP-2): also increased | total cellular cholesterol normalized to protein (HepG2 cells [3]): promotes cholesterol accumulation | total cellular cholesterol normalized to protein (HepG2 cells [3]; listed as Homocysteine): increased cellular cholesterol | total cellular cholesterol normalized to protein (HASMC [4]): promotes cholesterol accumulation | total cellular cholesterol normalized to protein (HASMC [4]; listed as Homocysteine): increased cellular cholesterol | total cellular cholesterol normalized to protein (HUVEC [5]): no significant change in the total cholesterol concentration; also recorded: unchanged | LDL or AcLDL binding (HUVEC [6]; 4 hour pre-treatment with 5 mM homocysteine): no significant effect | LDL and AcLDL binding/uptake (HUVEC [6]; 8 h incubation with 5 mM homocysteine): significant decrease in LDL and AcLDL binding; also recorded: significant decrease in LDL uptake; also recorded: similarly down-regulated | LDL uptake (HASMC [7]; 5 mM homocysteine 8 hr): maintained their ability to endocytose LDL | ability to bind LDL (HASMC [7]; after 18 h of incubation): no impairment | LDL binding/uptake (HepG2 cells [8]): may further enhance LDL binding; also recorded: enhanced LDL uptake | overall cell number or viability (cultured cells): no effect on overall cell number or viability; also recorded: does not effect cell viability | EC injury (cultured cells; homocysteine concentrations up to 5 mM): do not cause EC injury

CNc1ccc2oc(C[C@H]3O[C@@]4(CC[C@H]3C)O[C@H]([C@H](C)C(=O)c3ccc[nH]3)[C@H](C)C[C@H]4C)nc2c1C(=O)O [A23187]
expression of cholesterol biosynthetic enzymes (Northern analysis) [1]: induce the cholesterol biosynthetic pathway in a manner similar to that of homocysteine | steady-state mRNA levels of IPPI (IPP isomerase) ([1]; HepG2 cells): induced the expression of IPP isomerase; also recorded: increase IPPI mRNA levels

C[C@@H]1C[C@@H]([C@H](O)CC2CC(=O)NC(=O)C2)C(=O)[C@@H](C)C1 [cycloheximide]
effect on induction of cholesterol/triglyceride genes by homocysteine ([1]; data not shown): does not block the induction of these genes by homocysteine

NCC(=O)O [glycine]
steady-state mRNA levels of IPPI ([1]; HUVEC): only homocysteine and DTT significantly increased IPPI mRNA levels | steady-state mRNA levels of GRP78/BiP and GADD153 [2]: failed to induce the expression of these ER stress response genes

N[C@@H](CCO)C(=O)O [homoserine]
steady-state mRNA levels of IPPI ([1]; HUVEC): only homocysteine and DTT significantly increased IPPI mRNA levels | steady-state mRNA levels of GRP78/BiP and GADD153 [2]: failed to induce the expression of these ER stress response genes

CSCC[C@H](N)C(=O)O [methionine, L-methionine]
expression of cholesterol biosynthetic enzymes (Northern analysis) [1]: no other amino acids, including thiol-containing methionine and cysteine, have significant effects | steady-state mRNA levels of IPPI ([1]; HUVEC): only homocysteine and DTT significantly increased IPPI mRNA levels | steady-state mRNA levels of GRP78/BiP and GADD153 [2]: failed to induce the expression of these ER stress response genes

OCCS [β-mercaptoethanol]
steady-state mRNA levels of IPPI (IPP isomerase) ([1]; HepG2 cells): induced the expression of IPP isomerase; also recorded: increase IPPI mRNA levels

tunicamycin
expression of cholesterol biosynthetic enzymes (Northern analysis) [1]: induce the cholesterol biosynthetic pathway in a manner similar to that of homocysteine | steady-state mRNA levels of IPPI (IPP isomerase) ([1]; HepG2 cells): induced the expression of IPP isomerase; also recorded: increase IPPI mRNA levels | steady-state mRNA levels of GRP78/BiP and GADD153 [2]: also induced the steady-state mRNA levels of GRP78/BiP and GADD153
